The values that follow come from US20230416205A1, “COMPOUNDS, COMPOSITIONS, AND METHODS” (Denali Therapeutics Inc, priority 2020, published 2023).

This assay relates to NLRP3. Nature of the assay: IL-1β secretion assay in PMA-differentiated, LPS/nigericin-stimulated THP-1 cells (384-well, ELISA read-out). Type of assay: cell-based, human. In short, it runs like this:
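THP-1 cells differentiated with PMA (5 ng/mL, 40 h), primed in serum-free medium with 25 ng/mL LPS for 2 h, treated with compounds 1 h (0.5% DMSO), then stimulated with nigericin for 2 h at 37 °C. Supernatant IL-1β measured by ELISA; responses normalized to LPS+5 μM nigericin and LPS-only controls.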
For orientation: ELISA stands for enzyme-linked immunosorbent assay.

Where [1] appears, read: Homo sapiens, THP-1, IL-1β secretion, PMA-differentiated THP-1 cells, LPS then nigericin stimulation, ELISA read at 450 nm, read-out: Activity.
[2] abbreviates: Homo sapiens, THP-1, Table 4, IL-1β secretion, LPS/nigericin-stimulated THP-1 cells, read-out: IC50.

The structures appear in SMILES notation. Where two headings read alike, the source gives them in different places.

Take `O=C(CN1CC2(CC2)c2cc(Br)ccc2C1=O)Nc1ncc(F)cc1F` [Example 12]: the IC50 by setting is: under setting [1], less than 10 µM; under setting [2], 0.588 µM.
The like results for `O=C(CN1CC2(CC2)c2cc(Br)ccc2C1=O)NC12CC(C(F)(F)F)(C1)C2` [Example 13, 2-(6-bromo-1-oxospiro[3H-isoquinoline-4,1′-cyclopropane]-2-yl)-N-[3-(trifluoromethyl)-1-bicyclo[1.1.1]pentanyl]acetamide] were, in that order, less than 10 µM and 1.75 µM.
For `N#CC12CC(NC(=O)CN3CC4(CC4)c4cc(Br)ccc4C3=O)(C1)C2` [Example 14, 2-(6-bromo-1-oxospiro[3H-isoquinoline-4,1′-cyclopropane]-2-yl)-N-(3-cyano-1-bicyclo[1.1.1]pentanyl)acetamide], in that order: less than 10 µM and 3.12 µM.
For `O=C(CN1CC2(CC2)c2cc(Br)ccc2C1=O)NC1CCC(F)(F)CC1` [Example 15, 2-(6-bromo-1-oxospiro[3H-isoquinoline-4,1′-cyclopropane]-2-yl)-N-(4,4-difluorocyclohexyl)acetamide], in that order: less than 10 µM and 3.19 µM.
Turning to `O=C(CN1CC2(CC2)c2cc(Br)ccc2C1=O)N[C@@H]1C[C@@H]2CC[C@H]1O2` [Example 16, 2-(6-bromo-1-oxospiro[3H-isoquinoline-4,1′-cyclopropane]-2-yl)-N-[(1R,2R,4S)-7-oxabicyclo[2.2.1]heptan-2-yl]acetamide], the IC50 is less than 10 µM under setting [1] and 9.83 µM under setting [2].
As to `CCN1CCCC(NC(=O)CN2CC3(CC3)c3cc(Br)ccc3C2=O)C1` (centres unmarked) [Example 18, 2-(6-bromo-1-oxospiro[3H-isoquinoline-4,1′-cyclopropane]-2-yl)-N-(1-ethylpiperidin-3-yl)acetamide], the IC50 under setting [1] was less than 10 µM and the IC50 under setting [2] came to 1.45 µM.
For the compound `C[C@]1(O)C[C@@H](NC(=O)CN2CC3(CC3)c3cc(Br)ccc3C2=O)C1` [Example 19, 2-(6-bromo-1-oxospiro[3H-isoquinoline-4,1′-cyclopropane]-2-yl)-N-(cis-3-hydroxy-3-methylcyclobutyl)acetamide], the IC50 is less than 10 µM under setting [1] and 0.153 µM under setting [2].
The like results for `O=C(CN1CC2(CC2)c2cc(Br)ccc2C1=O)NC1CCn2nccc2C1` (centres unmarked) [Example 20] were, in that order, less than 10 µM and 3.19 µM.
For `CN1CC(NC(=O)CN2CC3(CC3)c3cc(Br)ccc3C2=O)CCC1=O` (centres unmarked) [Example 21, 2-(6-bromo-1-oxo-spiro[3H-isoquinoline-4,1′-cyclopropane]-2-yl)-N-(1-methyl-6-oxo-3-piperidyl)acetamide], in that order: less than 10 µM and 6.1 µM.
The like results for `CN1CCC(NC(=O)CN2CC3(CC3)c3cc(Br)ccc3C2=O)CC1=O` (centres unmarked) [Example 22, 2-(6-bromo-1-oxo-spiro[3H-isoquinoline-4,1′-cyclopropane]-2-yl)-N-(1-methyl-2-oxo-4-piperidyl)acetamide] were, in that order, 10 to 15 µM and 10.9 µM.
As for `O=C(CN1CC2(CC2)c2cc(Br)ccc2C1=O)NC1CC2(CC2)C1` [Example 23, 2-(6-bromo-1-oxo-spiro[3H-isoquinoline-4,1′-cyclopropane]-2-yl)-N-spiro[2.3]hexan-5-yl-acetamide], the IC50 runs as follows: under setting [1], less than 10 µM; under setting [2], 1.88 µM.
With `O=C(CN1CC2(CC2)c2cc(Br)ccc2C1=O)NC1CCOC(C2CC2)C1` (centres unmarked) [Example 24, 2-(6-bromo-1-oxo-spiro[3H-isoquinoline-4,1′-cyclopropane]-2-yl)-N-(2-cyclopropyltetrahydropyran-4-yl)acetamide], the IC50 is less than 10 µM under setting [1] and 7.17 µM under setting [2].
Take `COCCN1CCCC(NC(=O)CN2CC3(CC3)c3cc(Br)ccc3C2=O)C1` (centres unmarked) [Example 25, 2-(6-bromo-1-oxo-spiro[3H-isoquinoline-4,1′-cyclopropane]-2-yl)-N-[1-(2-methoxyethyl)-3-piperidyl]acetamide]: the IC50 runs as follows: under setting [1], less than 10 µM; under setting [2], 3.57 µM.
For the compound `CC1(C)CN(CC(=O)N[C@@H]2CCCN(C3CCC3)C2)C(=O)c2ccc(Br)cc21` [Example 26, (R)-2-(6-bromo-4,4-dimethyl-1-oxo-3,4-dihydroisoquinolin-2(1H)-yl)-N-(1-cyclobutylpiperidin-3-yl)acetamide], the IC50 was less than 10 µM under setting [1] and 0.445 µM under setting [2].
The like results for `O=C(CN1CC2(CC2)c2cc(C(F)(F)F)ccc2C1=O)Nc1ncccn1` [Example 27, 2-[1-oxo-6-(trifluoromethyl)spiro[3H-isoquinoline-4,1′-cyclopropane]-2-yl]-N-pyrimidin-2-yl-acetamide] were, in that order, less than 10 µM and 0.291 µM.
The like results for `O=C(CN1CC2(CC2)c2cc(C(F)(F)F)ccc2C1=O)Nc1ncc(F)cn1` [Example 28] were, in that order, less than 10 µM and 0.373 µM.
Take `CC1CC12CN(CC(=O)Nc1ncccn1)C(=O)c1ccc(C(F)(F)F)cc12` (centres unmarked) [Example 29, 2-[2′-methyl-1-oxo-6-(trifluoromethyl)spiro[3H-isoquinoline-4,1′-cyclopropane]-2-yl]-N-pyrimidin-2-yl-acetamide]: the IC50 runs as follows: under setting [1], less than 10 µM; under setting [2], 0.392 µM.
The like results for `CCC1(C)CN(CC(=O)Nc2ncccn2)C(=O)c2ccc(C(F)(F)F)cc21` (centres unmarked) [Example 30, 2-[4-ethyl-4-methyl-1-oxo-6-(trifluoromethyl)-3H-isoquinolin-2-yl]-N-pyrimidin-2-ylacetamide] were, in that order, greater than 15 µM and 15.1 µM.
Turning to `O=C(CN1CC2(CC2)c2nc(C(F)(F)F)ccc2C1=O)Nc1ncccn1` [Example 31, 2-[5-oxo-2-(trifluoromethyl)spiro[7H-1,6-naphthyridine-8,1′-cyclopropane]-6-yl]-N-pyrimidin-2-ylacetamide], the IC50 under setting [1] was less than 10 µM and the IC50 under setting [2] is 2.41 µM.
Take `O=C(CN1CC2(CCC2)c2cc(Br)ccc2C1=O)Nc1ncccn1` [Example 32, 2-(6-bromo-1-oxo-spiro[3H-isoquinoline-4,1′-cyclobutane]-2-yl)-N-pyrimidin-2-yl-acetamide]: the IC50 reads like this: under setting [1], less than 10 µM; under setting [2], 1.95 µM.
For `O=C(CN1CC2(CC2)c2cc(OC(F)F)ccc2C1=O)Nc1ncccn1` [Example 33, N-(pyrimidin-2-yl)-2-[6-(difluoromethoxy)-1-oxospiro[3H-isoquinoline-4,1′-cyclopropane]-2-yl]acetamide], in that order: less than 10 µM and 1.28 µM.
The like results for `O=C(CN1CC2(CC2)c2cc(C3CC3)ccc2C1=O)Nc1ncc(Cl)cn1` [Example 34, N-(5-chloropyrimidin-2-yl)-2-(6-cyclopropyl-1-oxo-spiro[3H-isoquinoline-4,1′-cyclopropane]-2-yl)acetamide] were, in that order, less than 10 µM and 0.137 µM.
Turning to `O=C(CN1CC2(CC2)c2c(ccc(C(F)(F)F)c2F)C1=O)Nc1ncc(F)cn1` [Example 35, 2-[5-fluoro-1-oxo-6-(trifluoromethyl)spiro[3H-isoquinoline-4,1′-cyclopropane]-2-yl]-N-(5-fluoropyrimidin-2-yl)acetamide], the IC50 under setting [1] is less than 10 µM and the IC50 under setting [2] was 0.366 µM.
For the compound `O=C(CN1CC2(CC2)c2cc(Br)ccc2C1=O)Nc1ccc(OC(F)F)cn1` [Example 36, 2-(6-bromo-1-oxo-spiro[3H-isoquinoline-4,1′-cyclopropane]-2-yl)-N-[5-(difluoromethoxy)-2-pyridyl]acetamide], the IC50 runs as follows: under setting [1], less than 10 µM; under setting [2], 2.72 µM.
The like results for `O=Cc1cnc(NC(=O)CN2CC3(CC3)c3cc(Br)ccc3C2=O)c(F)c1` [Example 37, 2-(6-bromo-1-oxo-spiro[3H-isoquinoline-4,1′-cyclopropane]-2-yl)-N-(3-fluoro-5-formyl-2-pyridyl)acetamide] were, in that order, less than 10 µM and 1.32 µM.
Take `O=C(CN1CC2(CC2)c2cc(Br)ccc2C1=O)Nc1ncc(F)cc1F` [Example 38, 2-(6-bromo-1-oxo-spiro[3H-isoquinoline-4,1′-cyclopropane]-2-yl)-N-(3,5-difluoro-2-pyridyl)acetamide]: the IC50 by setting is: (IL-1β secretion, PMA-differentiated THP-1 cells, LPS then nigericin stimulation, ELISA read at 450 nm, read-out: Activity) less than 10 µM; (Table 4, IL-1β secretion, LPS/nigericin-stimulated THP-1 cells, read-out: IC50) 0.449 µM.
Take `O=C(CN1CC2(CC2)c2c(ccc(Br)c2F)C1=O)Nc1ncccn1` [Example 39, 2-(6-bromo-5-fluoro-1-oxo-spiro[3H-isoquinoline-4,1′-cyclopropane]-2-yl)-N-(pyrimidin-2-yl)acetamide]: the IC50 under setting [1] was less than 10 µM and the IC50 under setting [2] was 0.09 µM.
For `O=C(CN1CC2(CC2)c2c(F)cccc2C1=O)Nc1ncccn1` [Example 40, 2-(5-fluoro-1-oxo-spiro[3H-isoquinoline-4,1′-cyclopropane]-2-yl)-N-(pyrimidin-2-yl)acetamide], in that order: less than 10 µM and 8.78 µM.
With `O=C(CN1CC2(CC2)c2c(ccc(Br)c2F)C1=O)Nc1ncc(F)cn1` [Example 41, 2-(6-bromo-5-fluoro-1-oxo-spiro[3H-isoquinoline-4,1′-cyclopropane]-2-yl)-N-(5-fluoropyrimidin-2-yl)acetamide], the IC50 runs as follows: under setting [1], less than 10 µM; under setting [2], 0.068 µM.
The like results for `O=C(CN1CC2(CC2)c2c(F)cccc2C1=O)Nc1ncc(F)cn1` [Example 42, 2-(5-fluoro-1-oxo-spiro[3H-isoquinoline-4,1′-cyclopropane]-2-yl)-N-(5-fluoropyrimidin-2-yl)acetamide] were, in that order, less than 10 µM and 5.24 µM.
The like results for `O=C(CN1CC2(CC2)c2cc(Br)ccc2C1=O)Nc1ccc2cn[nH]c2c1` [Example 43, 2-(6-bromo-1-oxo-spiro[3H-isoquinoline-4,1′-cyclopropane]-2-yl)-N-(1H-indazol-6-yl)acetamide] were, in that order, less than 10 µM and 0.368 µM.
